From ChEMBL document CHEMBL4024732, “Discovery of a novel and potent class of anti-HIV-1 maturation inhibitors with improved virology profile against gag polymorphisms” (Bioorg Med Chem Lett, 2017)
Each block holds one compound with its values, some of them ahead of it. Calls of active or inactive are those of the source. The calls are words filed in the database; no cut-off is given here.

How the values were obtained:
[1] = Inhibition of bevirimat-resistant HIV1 clade B NL4-3 CA-SP1 V370A mutant infected in human MT4 cells; type: cell-based; details: Human immunodeficiency virus 1, clade B NL4-3, MT4
[2] = Inhibition of bevirimat-resistant HIV1 clade B NL4-3 CA-SP1 T371A mutant infected in human MT4 cells; type: cell-based; details: Human immunodeficiency virus 1, clade B NL4-3, MT4
[3] = Inhibition of wild type HIV-1 clade B NL4-3 Gag polyprotein SP1 infected in human MT4 cells; type: cell-based; details: Human immunodeficiency virus 1, clade B NL4-3, MT4
[4] = Inhibition of bevirimat-resistant HIV1 clade B NL4-3 CA-SP1 Q369H mutant infected in human MT4 cells; type: cell-based; details: Human immunodeficiency virus 1, clade B NL4-3, MT4
[5] = test system: Human immunodeficiency virus 1; test: Inhibition of HIV1 Gag CA-SP1 cleavage infected in human PBMC at 10 uM measured after 8 days post infection by Western blot analysis
[6] = Inhibition of bevirimat-resistant HIV-1 clade B isolate ASJM108 Gag V370A mutant infected in human PBMC after 7 days by scintillation counting method; details: Human immunodeficiency virus 1, clade B isolate ASJM108, 168 h
[7] = Inhibition of bevirimat-resistant HIV-1 clade B isolate CC1/85 CA-SP1 V370A mutant infected in human PBMC measured after 7 days by scintillation counting method; details: Human immunodeficiency virus 1, clade B isolate CC1/85, 168 h
[8] = Inhibition of bevirimat-resistant HIV-1 clade A isolate I-2496 V370A mutant infected in human PBMC after 7 days by scintillation counting method; details: Human immunodeficiency virus 1, clade A isolate I-2496, 168 h
[9] = test system: Human immunodeficiency virus 1; test: Ratio of compound effect in presence of 40% human serum to compound effect in absence of serum for antiviral activity against HIV1 by cell based assay; type: functional
[10] = test system: Human immunodeficiency virus 1; test: Antiviral activity against HIV1 isolate 91BR014 infected in human PBMC; type: functional; details: Human immunodeficiency virus 1, isolate 91BR014
[11] = test system: Human immunodeficiency virus 1; test: Antiviral activity against HIV1 isolate 96THNP1538 infected in human PBMC; type: functional; details: Human immunodeficiency virus 1, isolate 96THNP1538
[12] = test system: Human immunodeficiency virus 1; test: Inhibition of HIV1 Gag CA-SP1 cleavage infected in human PBMC at 0.0001 to 10 uM measured after 8 days post infection by Western blot analysis
[13] = test system: Human immunodeficiency virus 1; test: Antiviral activity against HIV1 isolate 00KEKR1008 infected in human PBMC; type: functional; details: Human immunodeficiency virus 1, isolate 00KEKR1008
[14] = test system: Human immunodeficiency virus 1; test: Antiviral activity against HIV1 isolate 96USNG031 infected in human PBMC; type: functional; details: Human immunodeficiency virus 1, isolate 96USNG031
[15] = test system: Human immunodeficiency virus 1; test: Antiviral activity against HIV1 isolate 01ET188 infected in human PBMC; type: functional; details: Human immunodeficiency virus 1, isolate 01ET188
[16] = Cytotoxicity against human MT4 cells; type: cell-based

Compound: CC(C)C1=C2[C@H]3CC[C@@H]4[C@@]5(C)CC[C@H](OC(=O)CC(C)(C)C(=O)O)C(C)(C)[C@@H]5CC[C@@]4(C)[C@]3(C)CC[C@@]2(C(=O)C(=O)NC2(c3ccc(Cl)cc3)CCCC2)CC1=O
IC50 [1]: 110 nM
IC50 [2]: 33 nM
IC50 [3]: 66 nM
IC50 [4]: 100 nM

Compound: CC(C)C1=C2[C@H]3CC[C@@H]4[C@@]5(C)CC[C@H](OC(=O)CC(C)(C)C(=O)O)C(C)(C)[C@@H]5CC[C@@]4(C)[C@]3(C)CC[C@@]2(C(=O)C(=O)Nc2ccc(F)cc2)CC1=O
IC50 [1]: 1800 nM
IC50 [3]: 130 nM

Compound: CC(C)C1=C2[C@H]3CC[C@@H]4[C@@]5(C)CC[C@H](OC(=O)CC(C)(C)C(=O)O)C(C)(C)[C@@H]5CC[C@@]4(C)[C@]3(C)CC[C@@]2(C(=O)C(=O)NC(C)(C)c2ccc(Cl)cc2)CC1=O
IC50 [1]: 17 nM
IC50 [2]: 11 nM
IC50 [3]: 19 nM
IC50 [4]: 17 nM

Compound: COc1ccc(CNC(=O)C(=O)[C@@]23CC[C@]4(C)[C@H](CC[C@@H]5[C@@]6(C)CC[C@H](OC(=O)CC(C)(C)C(=O)O)C(C)(C)[C@@H]6CC[C@]54C)C2=C(C(C)C)C(=O)C3)cc1
IC50 [1]: 8000 nM
IC50 [3]: 99 nM

Compound: Cc1ccc(NC(=O)C(=O)[C@@]23CC[C@]4(C)[C@H](CC[C@@H]5[C@@]6(C)CC[C@H](OC(=O)CC(C)(C)C(=O)O)C(C)(C)[C@@H]6CC[C@]54C)C2=C(C(C)C)C(=O)C3)cc1
IC50 [1]: 664 nM
IC50 [3]: 251 nM

Compound: CC(C)C1=C2[C@H]3CC[C@@H]4[C@@]5(C)CC[C@H](OC(=O)CC(C)(C)C(=O)O)C(C)(C)[C@@H]5CC[C@@]4(C)[C@]3(C)CC[C@@]2(C(=O)C(=O)N[C@@H](C)c2ccc(Cl)cc2)CC1=O
IC50 [1]: 474 nM
IC50 [2]: 19 nM
IC50 [3]: 39 nM
IC50 [4]: 60 nM

Compound: CC(C)C1=C2[C@H]3CC[C@@H]4[C@@]5(C)CC[C@H](OC(=O)CC(C)(C)C(=O)O)C(C)(C)[C@@H]5CC[C@@]4(C)[C@]3(C)CC[C@@]2(C(=O)C(=O)NCc2ccncc2)CC1=O
IC50 [1]: > 10000 nM
IC50 [3]: 6200 nM

Compound: CC(C)C1=C2[C@H]3CC[C@@H]4[C@@]5(C)CC[C@H](OC(=O)CC(C)(C)C(=O)O)C(C)(C)[C@@H]5CC[C@@]4(C)[C@]3(C)CC[C@@]2(C(=O)C(=O)NC(C)(C)c2ccccc2)CC1=O
IC50 [1]: 19 nM
IC50 [3]: 18 nM

Compound: CC(C)C1=C2[C@H]3CC[C@@H]4[C@@]5(C)CC[C@H](OC(=O)CC(C)(C)C(=O)O)C(C)(C)[C@@H]5CC[C@@]4(C)[C@]3(C)CC[C@@]2(C(=O)C(=O)NCc2cccc(Cl)c2)CC1=O
IC50 [1]: 370 nM
IC50 [3]: 16 nM

Compound: CC(C)C1=C2[C@H]3CC[C@@H]4[C@@]5(C)CC[C@H](OC(=O)CC(C)(C)C(=O)O)C(C)(C)[C@@H]5CC[C@@]4(C)[C@]3(C)CC[C@@]2(C(=O)C(=O)NCC2CCCCC2)CC1=O
IC50 [1]: 27 nM
IC50 [3]: 11 nM

Compound: CNC(=O)C(=O)[C@@]12CC[C@]3(C)[C@H](CC[C@@H]4[C@@]5(C)CC[C@H](OC(=O)CC(C)(C)C(=O)O)C(C)(C)[C@@H]5CC[C@]43C)C1=C(C(C)C)C(=O)C2
IC50 [1]: 6670 nM
IC50 [3]: 1320 nM

Compound: CC(C)C1=C2[C@H]3CC[C@@H]4[C@@]5(C)CC[C@H](OC(=O)CC(C)(C)C(=O)O)C(C)(C)[C@@H]5CC[C@@]4(C)[C@]3(C)CC[C@@]2(C(=O)C(=O)NCc2c(Cl)cccc2Cl)CC1=O
IC50 [1]: 1070 nM
IC50 [3]: 85 nM

Compound: CC(C)C1=C2[C@H]3CC[C@@H]4[C@@]5(C)CC[C@H](OC(=O)CC(C)(C)C(=O)O)C(C)(C)[C@@H]5CC[C@@]4(C)[C@]3(C)CC[C@@]2(C(=O)C(=O)NCc2ccc(C(F)(F)F)cc2)CC1=O
IC50 [1]: 1320 nM
IC50 [3]: 135 nM

Compound: CC(C)C1=C2[C@H]3CC[C@@H]4[C@@]5(C)CC[C@H](OC(=O)CC(C)(C)C(=O)O)C(C)(C)[C@@H]5CC[C@@]4(C)[C@]3(C)CC[C@@]2(C(=O)C(=O)NCc2ccc(F)cc2)CC1=O
IC50 [1]: 202 nM
IC50 [3]: 16 nM

Compound: CC(C)C1=C2[C@H]3CC[C@@H]4[C@@]5(C)CC[C@H](OC(=O)CC(C)(C)C(=O)O)C(C)(C)[C@@H]5CC[C@@]4(C)[C@]3(C)CC[C@@]2(C(=O)C(=O)NC2(c3ccc(Cl)cc3)CCC2)CC1=O
IC50 [1]: 65 nM
IC50 [2]: 17 nM
IC50 [3]: 29 nM
IC50 [4]: 48 nM

Compound: CC[C@@H](NC(=O)C(=O)[C@@]12CC[C@]3(C)[C@H](CC[C@@H]4[C@@]5(C)CC[C@H](OC(=O)CC(C)(C)C(=O)O)C(C)(C)[C@@H]5CC[C@]43C)C1=C(C(C)C)C(=O)C2)c1ccc(Cl)cc1
IC50 [1]: 64 nM
IC50 [2]: 12 nM
IC50 [3]: 28 nM
IC50 [4]: 74 nM

Compound: CC(C)C1=C2[C@H]3CC[C@@H]4[C@@]5(C)CC[C@H](OC(=O)CC(C)(C)C(=O)O)C(C)(C)[C@@H]5CC[C@@]4(C)[C@]3(C)CC[C@@]2(C(=O)C(=O)NCc2ccc(Cl)cc2)CC1=O
IC50 [1]: 87 nM
IC50 [3]: 12 nM

IC50 [3]: > 10000 nM
Compound: CC(C)C1=C2[C@H]3CC[C@@H]4[C@@]5(C)CC[C@H](OC(=O)CC(C)(C)C(=O)O)C(C)(C)[C@@H]5CC[C@@]4(C)[C@]3(C)CC[C@@]2(C(=O)C(=O)O)CC1=O

Compound: CC[C@H](NC(=O)C(=O)[C@@]12CC[C@]3(C)[C@H](CC[C@@H]4[C@@]5(C)CC[C@H](OC(=O)CC(C)(C)C(=O)O)C(C)(C)[C@@H]5CC[C@]43C)C1=C(C(C)C)C(=O)C2)c1ccc(Cl)cc1
IC50 [1]: 372 nM
IC50 [2]: 26 nM
IC50 [3]: 54 nM
IC50 [4]: 62 nM

Compound: C=C(C)[C@@H]1CC[C@]2(C(=O)O)CC[C@]3(C)[C@H](CC[C@@H]4[C@@]5(C)CC[C@H](OC(=O)CC(C)(C)C(=O)O)C(C)(C)[C@@H]5CC[C@]43C)[C@@H]12 [BEVIRIMAT]
inhibition [5]: Active
IC50 [6]: > 10000 nM
IC50 [1]: 6510 nM
IC50 [2]: 252 nM
IC50 [3]: 270 nM
IC50 [7]: > 10000 nM
IC50 [8]: > 4000 nM
Ratio [9]: 52
IC50 [4]: 383 nM

Compound: CC(C)C1=C2[C@H]3CC[C@@H]4[C@@]5(C)CC[C@H](OC(=O)CC(C)(C)C(=O)O)C(C)(C)[C@@H]5CC[C@@]4(C)[C@]3(C)CC[C@@]2(C(=O)C(=O)N2CCC2)CC1=O
IC50 [1]: > 10000 nM
IC50 [3]: 5600 nM

Compound: CC(C)C1=C2[C@H]3CC[C@@H]4[C@@]5(C)CC[C@H](OC(=O)CC(C)(C)C(=O)O)C(C)(C)[C@@H]5CC[C@@]4(C)[C@]3(C)CC[C@@]2(C(=O)C(=O)NCCCN2CCCC2)CC1=O
IC50 [1]: 7500 nM
IC50 [3]: 1180 nM

Compound: CC(C)C1=C2[C@H]3CC[C@@H]4[C@@]5(C)CC[C@H](OC(=O)CC(C)(C)C(=O)O)C(C)(C)[C@@H]5CC[C@@]4(C)[C@]3(C)CC[C@@]2(C(=O)C(=O)NCc2ccc(Cl)cc2Cl)CC1=O
IC50 [1]: 193 nM
IC50 [3]: 37 nM

Compound: CC(C)C1=C2[C@H]3CC[C@@H]4[C@@]5(C)CC[C@H](OC(=O)CC(C)(C)C(=O)O)C(C)(C)[C@@H]5CC[C@@]4(C)[C@]3(C)CC[C@@]2(C(=O)C(=O)NC2CCCCC2)CC1=O
IC50 [1]: 329 nM
IC50 [3]: 28 nM

Compound: CC(C)C1=C2[C@H]3CC[C@@H]4[C@@]5(C)CC[C@H](OC(=O)CC(C)(C)C(=O)O)C(C)(C)[C@@H]5CC[C@@]4(C)[C@]3(C)CC[C@@]2(C(=O)C(=O)N[C@H](C)c2ccc(Cl)cc2)CC1=O
IC50 [1]: 25 nM
IC50 [2]: 5 nM
IC50 [3]: 18 nM
IC50 [4]: 25 nM

Compound: CC(C)C1=C2[C@H]3CC[C@@H]4[C@@]5(C)CC[C@H](OC(=O)CC(C)(C)C(=O)O)C(C)(C)[C@@H]5CC[C@@]4(C)[C@]3(C)CC[C@@]2(C(=O)C(=O)NCc2cccs2)CC1=O
IC50 [1]: 1620 nM
IC50 [3]: 21 nM

Compound: CC(C)C1=C2[C@H]3CC[C@@H]4[C@@]5(C)CC[C@H](OC(=O)CC(C)(C)C(=O)O)C(C)(C)[C@@H]5CC[C@@]4(C)[C@]3(C)CC[C@@]2(C(=O)C(=O)NCCN2CCCC2)CC1=O
IC50 [1]: > 10000 nM
IC50 [3]: 1000 nM

Compound: CC(C)C1=C2[C@H]3CC[C@@H]4[C@@]5(C)CC[C@H](OC(=O)CC(C)(C)C(=O)O)C(C)(C)[C@@H]5CC[C@@]4(C)[C@]3(C)CC[C@@]2(C(=O)C(=O)NC2(c3ccc(Cl)cc3)CC2)CC1=O
IC50 [10]: > 60 nM
IC50 [11]: > 60 nM
inhibition [12]: Active
IC50 [6]: 51 nM
IC50 [1]: 25 nM
IC50 [2]: 8 nM
IC50 [3]: 17 nM
IC50 [13]: > 60 nM
IC50 [7]: 5 nM
IC50 [14]: > 60 nM
IC50 [8]: 14 nM
Ratio [9]: 9.7
IC50 [15]: > 60 nM
CC50 [16]: > 10000 nM
IC50 [4]: 23 nM

Compound: CC(C)C1=C2[C@H]3CC[C@@H]4[C@@]5(C)CC[C@H](OC(=O)CC(C)(C)C(=O)O)C(C)(C)[C@@H]5CC[C@@]4(C)[C@]3(C)CC[C@@]2(C(=O)C(=O)NCc2ccccc2Cl)CC1=O
IC50 [1]: 486 nM
IC50 [3]: 17 nM
